A short description of data set [1]: Electrochemical activity: polarographic reduction on mercury dripping electrode. The data set is classed as physicochemical. The following applies: for number of electrons participating in the reduction reaction: calculated with Geirovsky-Ilkovich equation; for i: 2.0% sodium chloride background, 9·10^−4 M; for i / −E1/2: 37° C., forward trace, average for the group of compounds; for −E1/2: vs SCE; for half-wave potential more positive at reverse stroke compared to forward stroke: polarograms of reverse stroke. As for the experimental part:
The study was carried out on a general-purpose polarograph PU-1 with a two-coordinate recorder of the “LKD” type using a three-electrode thermostatically controlled polarographic cell and mercury dripping electrode (MDE) with forced separation of the drop and a dropping period of 0.5 second. A platinum wire was used as an auxiliary electrode and a saturated calomel electrode (SCE) was used as a control electrode.
2.0% solutions of sodium chloride having pH 7.0, 7.2, 7.4, 7.6 were used as a background; the pH values of the background solution were corrected by a solution of sodium hydroxide. The polarographic cell was filled with 5.0 ml of the background solution and for 5 minutes was purged with nitrogen for removing the dissolved oxygen. Then 0.5 ml of solution of the studied substance was added to the background solution, and the polarogram was recorded as a polarographic wave. The concentration of the compounds in the polarographic cell was 9·10^−4 M.
The pH was measured on the pH-meter with an accuracy of +0.05 pH units. The polarographic measurements were carried out at a temperature of 37° C. The recording of polarograms of the investigated materials was effected under conditions of DC current at a scanning rate of the potential 10.0 mV/s with a active scanning stroke from a potential 0 to −0.5 V and sweep retrace from a −0.5 V to 0. The electric-current sensitivity was 5.0 mkA. The scale by the coordinate of the potentials was 50.0 mV/cm. The values of potentials of the half-wave E1/2 of the investigated materials are given with respect to the SCE potential.
The polarogram parameters such as a limiting current ilim and E1/2 were determined by the graphic method. The number of electrons participating in the reaction was calculated on the basis of the analysis of the polarographic wave using the Geirovsky-Ilkovich equation.
The calculation of the number of electrons participating in the reduction reaction was effected using the Geirovsky-Ilkovich equation: […]

Data set [2] in a line: Chronic toxicity of suppositories: indexes of peripheral blood. The data set is classed as in vivo, rats. Set-up: Thrombocytes: unit not given here. The following applies: male rats, suppositories rectally; for Basophiles / Juveniles: 1 month/2 months (one value given), control 0.

For the compound “disodium salt of 3-κapõoκcℏ-7-(β-D-ribofuranosile)pyrido[2,3-d]-6H-pyridazine-5,8-dione [Compound 5]”, the “number of electrons participating in the reduction reaction” value (shortened to “number … in the reduction reaction”) in data set [1] is reported as 3.72. Moreover, the i in data set [1] (pH 7.0) came out at 0.26 ± 0.04 mkA; in data set [1] (pH 7.2), 0.31 ± 0.02 mkA; in data set [1] (pH 7.4), 0.27 ± 0.03 mkA; in data set [1] (pH 7.6) it was 0.30 ± 0.01 mkA. The “−E1/2” value turned out to be 0.11 ± 0.02 V in data set [1] (pH 7.0), 0.11 ± 0.03 V in data set [1] (pH 7.2), 0.105 ± 0.01 V in data set [1] (pH 7.4) and 0.105 ± 0.02 V in data set [1] (pH 7.6). In data set [1], the “half-wave potential more positive at reverse stroke compared to forward stroke” value is on record as 25.0 mV.
`COP(=O)(OC)C(C)(C)CC(C)=O` [Dimesphosphon, dimethyl ester of 1,1-dimethyl-3-oxybuthyl of phosphonic acid, reference compound]: in data set [1], the “number … in the reduction reaction” value was 1.6. The “electrons consumed during the reduction” value in data set [1] (conclusion from calculated number) is listed as 2. Also, the i in data set [1] (pH 7.0) was found to be 0.10 ± 0.03 mkA; in data set [1] (pH 7.2), 0.12 ± 0.03 mkA; in data set [1] (pH 7.4), 0.11 ± 0.02 mkA; in data set [1] (pH 7.6), 0.11 ± 0.02 mkA. Besides, the “−E1/2” value in data set [1] (pH 7.0) was determined as 0.175 ± 0.01 V; in data set [1] (pH 7.2), 0.17 ± 0.02 V; in data set [1] (pH 7.4), 0.18 ± 0.01 V; in data set [1] (pH 7.6), 0.18 ± 0.01 V. In addition, in data set [1], the “half-wave potential more positive at reverse stroke compared to forward stroke” value was determined as 50.0 mV.
As for `O=c1[nH]n([C@@H]2O[C@H](CO)[C@@H](O)[C@H]2O)c(=O)c2ncccc12.[Na]` [Compound 1, sodium salt of 7-(β-O-ribofuranosile)pyrido[2,3-1]-6H-pyridazine-5,8-dione sodium salt], the “number … in the reduction reaction” value in data set [1] is 3.72. Besides, the i came to 0.26 ± 0.04 mkA in data set [1] (pH 7.0), 0.31 ± 0.02 mkA in data set [1] (pH 7.2), 0.27 ± 0.03 mkA in data set [1] (pH 7.4) and 0.30 ± 0.01 mkA in data set [1] (pH 7.6). Also, the “−E1/2” value in data set [1] (pH 7.0) was 0.11 ± 0.02 V; in data set [1] (pH 7.2) it was 0.11 ± 0.03 V; in data set [1] (pH 7.4) it was 0.105 ± 0.01 V; in data set [1] (pH 7.6), 0.105 ± 0.02 V. In addition, the “half-wave potential more positive at reverse stroke compared to forward stroke” value in data set [1] came out at 25.0 mV.
Turning to `O=C([O-])c1ncnc2c(=O)n([C@@H]3O[C@H](CO)[C@@H](O)[C@H]3O)[nH]c(=O)c12.[Na+]` [Compound 34, sodium salt of 4-carboxy-7-(β-D-ribofuranosile)pyrimido[4,5-D]-6H-pyridazine-5,8-dione], the Basophiles in data set [2] (50 mg/kg) and in data set [2] (500 mg/kg) was 0% each time. For the same compound, the Juveniles in data set [2] (50 mg/kg) and in data set [2] (500 mg/kg) was 0% throughout. Moreover, the Stab neutrophil in data set [2] (50 mg/kg, 1 month, control 0.8 ± 0.4) amounted to 1.0 ± 0.4%; in data set [2] (50 mg/kg, 2 months, control 2.4 ± 0.4), 1.8 ± 0.5%; in data set [2] (500 mg/kg, 1 month, control 0.8 ± 0.4) it was 0.9 ± 0.2%; in data set [2] (500 mg/kg, 2 months, control 2.4 ± 0.4) it was 1.4 ± 0.3%. For the same compound, the REE in data set [2] (50 mg/kg, 1 month, control 2.2 ± 0.4) turned out to be 1.8 ± 0.5 mm/h; in data set [2] (50 mg/kg, 2 months, control 1.4 ± 0.2), 1.7 ± 0.3 mm/h; in data set [2] (500 mg/kg, 1 month, control 2.2 ± 0.4), 2.0 ± 0.4 mm/h; in data set [2] (500 mg/kg, 2 months, control 1.4 ± 0.2), 1.8 ± 0.2 mm/h. The Reticulocytes in data set [2] (50 mg/kg, 1 month, control 2.8%0.3) was found to be 2.7 ± 0.1%; in data set [2] (50 mg/kg, 2 months, control 2.9 ± 0.2) it was 2.9 ± 0.2%; in data set [2] (500 mg/kg, 1 month, control 2.8%0.3), 3.2 ± 0.2%; in data set [2] (500 mg/kg, 2 months, control 2.9 ± 0.2), 3.5 ± 0.3%. Also, the Eosinophiles in data set [2] (50 mg/kg, 1 month, control 4.0 + 0.3) is listed as 3.5 ± 1.0%; in data set [2] (50 mg/kg, 2 months, control 4.4 + 1.2), 4.1 ± 0.4%; in data set [2] (500 mg/kg, 1 month, control 4.0 + 0.3) it was 3.0 ± 0.9%; in data set [2] (500 mg/kg, 2 months, control 4.4 + 1.2), 3.9 ± 1.4%. The Erythrocytes in data set [2] (50 mg/kg, 1 month, control 5.6 ± 0.1) turned out to be 5.6 ± 0.1 mln/mm^3; in data set [2] (50 mg/kg, 2 months, control 6.1 ± 0.1) it was 6.1 ± 0.2 mln/mm^3; in data set [2] (500 mg/kg, 1 month, control 5.6 ± 0.1) it was 5.6 ± 0.2 mln/mm^3; in data set [2] (500 mg/kg, 2 months, control 6.1 ± 0.1), 6.6 ± 0.1 mln/mm^3. For the same compound, the Hemoglobin in data set [2] (50 mg/kg, 1 month, control 10.5 ± 0.2) came out at 10.6 ± 0.1 mmol/L; in data set [2] (50 mg/kg, 2 months, control 11.4 ± 0.2), 11.1 ± 0.2 mmol/L; in data set [2] (500 mg/kg, 1 month, control 10.5 ± 0.2), 10.6 ± 0.3 mmol/L; in data set [2] (500 mg/kg, 2 months, control 11.4 ± 0.2), 12.4 ± 0.4 mmol/L. In addition, the Leukocyte in data set [2] (50 mg/kg, 1 month, control 17.4 ± 1.3) came to 15.9 ± 1.3 thousand/mm^3; in data set [2] (50 mg/kg, 2 months, control 19.1 ± 1.9), 17.8 ± 1.4 thousand/mm^3; in data set [2] (500 mg/kg, 1 month, control 17.4 ± 1.3), 16.9 ± 1.0 thousand/mm^3; in data set [2] (500 mg/kg, 2 months, control 19.1 ± 1.9), 22.1 ± 1.1 thousand/mm^3. Further, the Haematocrite in data set [2] (50 mg/kg, 1 month, control 45.9 ± 1.7) was determined as 46.9 ± 1.1%; in data set [2] (50 mg/kg, 2 months, control 45.9 ± 1.8) it was 47.5 ± 1.2%; in data set [2] (500 mg/kg, 1 month, control 45.9 ± 1.7), 48.1 ± 1.5%; in data set [2] (500 mg/kg, 2 months, control 45.9 ± 1.8) it was 53.1 ± 1.6%. The “Average volume of erythrocytes” value is recorded as 81.6 ± 1.9 Mkm^3 in data set [2] (50 mg/kg, 1 month, control 81.4 ± 1.7); 76.7 ± 1.9 Mkm^3 in data set [2] (50 mg/kg, 2 months, control 74.6 + 1.9); 84.1 ± 1.3 Mkm^3 in data set [2] (500 mg/kg, 1 month, control 81.4 ± 1.7); 83.8 ± 1.5 Mkm^3 in data set [2] (500 mg/kg, 2 months, control 74.6 + 1.9). The “Coagulation, time” value in data set [2] (50 mg/kg, 1 month, control 152 ± 10.2) was determined as 148 ± 16 s; in data set [2] (50 mg/kg, 2 months, control 316 ± 8) it was 321 ± 10 s; in data set [2] (500 mg/kg, 2 months, control 316 ± 8) it was 312 ± 9 s. In addition, the Thrombocytes is given as 670 ± 23 in data set [2] (50 mg/kg, 1 month, control 707 ± 23); 610 ± 15 in data set [2] (50 mg/kg, 2 months, control 593 ± 14); 682 ± 24 in data set [2] (500 mg/kg, 1 month, control 707 ± 23); 631 ± 26 in data set [2] (500 mg/kg, 2 months, control 593 ± 14).
As to “potassium salt of 3-bromine-pyrazine[2,3-Cl]-6H-pyridazine-5,8-dione [Compound 27]”, the “number … in the reduction reaction” value in data set [1] is listed as 3.72. Besides, the i is 0.32 ± 0.03 mkA in data set [1] (pH 7.0), 0.33 ± 0.04 mkA in data set [1] (pH 7.2), 0.34 ± 0.03 mkA in data set [1] (pH 7.4) and 0.34 ± 0.02 mkA in data set [1] (pH 7.6). The “−E1/2” value came out at 0.16 ± 0.02 V in data set [1] (pH 7.0), 0.19 ± 0.02 V in data set [1] (pH 7.2), 0.175 ± 0.01 V in data set [1] (pH 7.4) and 0.16 ± 0.015 V in data set [1] (pH 7.6). The “half-wave potential more positive at reverse stroke compared to forward stroke” value in data set [1] was determined as 20.0 mV.
With `O=c1[nH][nH]c(=O)c2nccnc12.[Na]` [Compound 26, sodium salt of pyrazine[2,3-d]-6H-pyridazine-5,8-dione], the “half-wave potential more positive at reverse stroke compared to forward stroke” value in data set [1] is recorded as 27.0 mV.

The values above are taken from patent US8592421B2, “Cyclic bioisosters of purine system derivatives and a pharmaceutical composition based thereon” (priority 2003, dated 2013).
